Assay results reported in patent US9452986B2, “6-heteroaryloxy- or 6-aryloxy-quinoline-2-carboxamides and method of use” (AbbVie Inc., priority 2014, dated 2016).

Biological target: recombinant human Nav1.7 (Homo sapiens (Human), UniProt Q15858)
Assay: FRET-based membrane potential assay, recombinant human sodium channel Nav1.7
Assay type: cell-based
Settings: HEK293 cells stably expressing recombinant human Nav1.7; veratridine + scorpion venom depolarization; read-out: FRET-Membrane Potential Nav1.7 IC50
How it was run: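 Channel activation used veratridine at its EC80, set by a dilution curve each experiment, together with Leiurus scorpion venom, added 3 min after compound. Membrane-potential ratio signals from FLIPR Tetra in HEPES-buffered HBSS were fitted to a four-parameter Hill equation for percent inhibition and IC50.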

Sequence of recombinant human Nav1.7 (Q15858 whole entry): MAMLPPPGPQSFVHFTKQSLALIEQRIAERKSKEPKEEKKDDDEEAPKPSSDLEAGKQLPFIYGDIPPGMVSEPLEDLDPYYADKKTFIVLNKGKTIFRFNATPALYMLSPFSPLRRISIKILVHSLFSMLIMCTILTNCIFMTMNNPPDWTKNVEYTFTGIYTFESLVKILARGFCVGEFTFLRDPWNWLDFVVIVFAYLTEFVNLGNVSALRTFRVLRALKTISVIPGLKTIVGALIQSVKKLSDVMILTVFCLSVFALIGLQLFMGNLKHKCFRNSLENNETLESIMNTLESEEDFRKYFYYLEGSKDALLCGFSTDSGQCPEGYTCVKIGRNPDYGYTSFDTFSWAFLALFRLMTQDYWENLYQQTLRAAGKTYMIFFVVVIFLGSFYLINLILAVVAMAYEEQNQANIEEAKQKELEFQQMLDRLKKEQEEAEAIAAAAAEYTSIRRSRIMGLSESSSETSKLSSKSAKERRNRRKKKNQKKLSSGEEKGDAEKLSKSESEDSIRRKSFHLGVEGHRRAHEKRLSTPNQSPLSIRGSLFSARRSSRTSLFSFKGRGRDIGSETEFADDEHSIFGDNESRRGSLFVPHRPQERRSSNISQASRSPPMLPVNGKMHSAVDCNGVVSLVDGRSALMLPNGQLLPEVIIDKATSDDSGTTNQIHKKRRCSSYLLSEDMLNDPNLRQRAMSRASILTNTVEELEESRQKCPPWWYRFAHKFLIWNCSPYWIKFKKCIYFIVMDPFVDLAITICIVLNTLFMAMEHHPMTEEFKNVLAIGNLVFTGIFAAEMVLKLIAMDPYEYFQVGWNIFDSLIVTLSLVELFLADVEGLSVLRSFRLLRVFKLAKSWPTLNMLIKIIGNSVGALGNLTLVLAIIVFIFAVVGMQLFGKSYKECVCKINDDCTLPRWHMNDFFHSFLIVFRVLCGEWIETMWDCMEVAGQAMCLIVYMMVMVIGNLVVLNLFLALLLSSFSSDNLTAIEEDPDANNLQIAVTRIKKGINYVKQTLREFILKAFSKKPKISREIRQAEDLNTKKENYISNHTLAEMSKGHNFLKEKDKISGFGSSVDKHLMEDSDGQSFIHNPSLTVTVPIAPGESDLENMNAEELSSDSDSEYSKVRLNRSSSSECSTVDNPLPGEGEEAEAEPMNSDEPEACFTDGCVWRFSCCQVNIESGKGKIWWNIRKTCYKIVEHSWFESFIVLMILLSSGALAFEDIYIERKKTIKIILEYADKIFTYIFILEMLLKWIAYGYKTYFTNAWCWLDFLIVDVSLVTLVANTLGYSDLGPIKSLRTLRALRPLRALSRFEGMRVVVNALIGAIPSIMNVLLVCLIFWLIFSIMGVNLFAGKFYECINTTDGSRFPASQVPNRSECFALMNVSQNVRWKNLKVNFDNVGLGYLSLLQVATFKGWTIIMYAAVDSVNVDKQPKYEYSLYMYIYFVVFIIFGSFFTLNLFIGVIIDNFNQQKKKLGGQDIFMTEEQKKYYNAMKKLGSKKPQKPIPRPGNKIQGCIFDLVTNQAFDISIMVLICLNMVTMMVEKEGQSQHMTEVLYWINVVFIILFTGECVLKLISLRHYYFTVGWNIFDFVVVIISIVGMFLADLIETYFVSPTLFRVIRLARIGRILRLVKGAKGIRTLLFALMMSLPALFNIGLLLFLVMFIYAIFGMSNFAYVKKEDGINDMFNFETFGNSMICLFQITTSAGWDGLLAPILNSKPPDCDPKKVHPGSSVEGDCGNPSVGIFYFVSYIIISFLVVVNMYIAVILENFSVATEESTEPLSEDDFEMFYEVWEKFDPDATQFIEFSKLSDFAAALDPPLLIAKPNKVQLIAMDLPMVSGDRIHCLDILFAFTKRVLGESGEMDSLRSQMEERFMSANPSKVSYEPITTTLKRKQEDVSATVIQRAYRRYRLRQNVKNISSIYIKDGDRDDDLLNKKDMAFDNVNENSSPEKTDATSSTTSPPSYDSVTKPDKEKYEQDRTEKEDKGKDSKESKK

Row | SMILES | IC50
1 | COCCn1cc(S(=O)(=O)N2CCN(C(=O)c3ccc4cc(Oc5ccc(C(F)(F)F)cn5)ccc4n3)CC2)cn1 [Example 384, (4-{[1-(2-methoxyethyl)-1H-pyrazol-4-yl]sulfonyl}piperazin-1-yl)(6-{[5-(trifluoromethyl)pyridin-2-yl]oxy}quinolin-2-yl)methanone] | 1930 nM
2 | O=C(c1ccc2cc(Oc3ccc(C(F)(F)F)cn3)ccc2n1)N1CCN(S(=O)(=O)CC2CCOC2)CC1 (stereo not shown) [Example 385, {4-[(tetrahydrofuran-3-ylmethyl)sulfonyl]piperazin-1-yl}(6-{[5-(trifluoromethyl)pyridin-2-yl]oxy}quinolin-2-yl)methanone] | 2330 nM
3 | O=C(c1ccc2cc(Oc3ccc(C(F)(F)F)cn3)ccc2n1)N1CCN(S(=O)(=O)C2CCS(=O)(=O)C2)CC1 (stereo not shown) [Example 386, {4[(1,1-dioxidotetrahydrothiophen-3-yl)sulfonyl]piperazin-1-yl}(6-{[5-(trifluoromethyl)pyridin-2-yl]oxy}quinolin-2-yl)methanone] | > 20000 nM
4 | Cn1cc(S(=O)(=O)N2CCN(C(=O)c3ccc4cc(Oc5ccc(C(F)(F)F)cn5)ccc4n3)CC2)cn1 [Example 387, {4-[(1-methyl-1H-pyrazol-4-yl)sulfonyl]piperazin-1-yl}(6-{[5-(trifluoromethyl)pyridin-2-yl]oxy}quinolin-2-yl)methanone] | 2480 nM
5 | CC(=O)Nc1nc(C)c(S(=O)(=O)N2CCN(C(=O)c3ccc4cc(Oc5ccc(C(F)(F)F)cn5)ccc4n3)CC2)s1 [Example 388, N-[4-methyl-5-({4-[(6-{[5-(trifluoromethyl)pyridin-2-yl]oxy}quinolin-2-yl)carbonyl]piperazin-1-yl}sulfonyl)-1,3-thiazol-2-yl]acetamide] | > 20000 nM
6 | CC(=O)Nc1ncc(S(=O)(=O)N2CCN(C(=O)c3ccc4cc(Oc5ccc(C(F)(F)F)cn5)ccc4n3)CC2)s1 [Example 389, N-[5-({4-[(6-{[5-(trifluoromethyl)pyridin-2-yl]oxy}quinolin-2-yl)carbonyl]piperazin-1-yl}sulfonyl)-1,3-thiazol-2-yl]acetamide] | 9220 nM
7 | Cc1c(S(=O)(=O)N2CCN(C(=O)c3ccc4cc(Oc5ccc(C(F)(F)F)cn5)ccc4n3)CC2)cnn1C [Example 390, {4-[(1,5-dimethyl-1H-pyrazol-4-yl)sulfonyl]piperazin-1-yl}(6-{[5-(trifluoromethyl)pyridin-2-yl]oxy}quinolin-2-yl)methanone] | 2340 nM
8 | O=C(NC[C@@H]1CCCO1)c1ccc2cc(Oc3ccc(C(F)(F)F)cn3)ccc2n1 [Example 394, N-[(2S)-tetrahydrofuran-2-ylmethyl]-6-{[5-(trifluoromethyl)pyridin-2-yl]oxy}quinoline-2-carboxamide] | 443 nM
9 | COC1CN(C(=O)c2ccc3cc(Oc4ccc(C(F)(F)F)cn4)ccc3n2)C1 [Example 396, (3-methoxyazetidin-1-yl)(6-{[5-(trifluoromethyl)pyridin-2-yl]oxy}quinolin-2-yl)methanone] | 1940 nM
10 | CO[C@H]1C[C@H](NC(=O)c2ccc3cc(Oc4ccc(C(F)(F)F)cn4)ccc3n2)C1 [Example 397, N-(trans-3-methoxycyclobutyl)-6-{[5-(trifluoromethyl)pyridin-2-yl]oxy}quinoline-2-carboxamide] | 896 nM
11 | CN(C(=O)c1ccc2cc(Oc3ccc(C(F)(F)F)cn3)ccc2n1)C1CS(=O)(=O)CC1O (stereo not shown) [Example 398, N-(4-hydroxy-1,1-dioxidotetrahydrothiophen-3-yl)-N-methyl-6-{[5-(trifluoromethyl)pyridin-2-yl]oxy}quinoline-2-carboxamide] | 6110 nM
12 | O=C(NC1COC1)c1ccc2cc(Oc3ccc(C(F)(F)F)cn3)ccc2n1 [Example 399, N-(oxetan-3-yl)-6-{[5-(trifluoromethyl)pyridin-2-yl]oxy}quinoline-2-carboxamide] | 375 nM
13 | O=C(NC1CCSCC1)c1ccc2cc(Oc3ccc(C(F)(F)F)cn3)ccc2n1 [Example 400, N-(tetrahydro-2H-thiopyran-4-yl)-6-{[5-(trifluoromethyl)pyridin-2-yl]oxy}quinoline-2-carboxamide] | 1220 nM
14 | O=C(N[C@H]1CCC[C@H]1O)c1ccc2cc(Oc3ccc(C(F)(F)F)cn3)ccc2n1 [Example 401, N-[(1S,2R)-2-hydroxycyclopentyl]-6-{[5-(trifluoromethyl)pyridin-2-yl]oxy}quinoline-2-carboxamide] | 400 nM
15 | NC(=O)C1CN(C(=O)c2ccc3cc(Oc4ccc(C(F)(F)F)cn4)ccc3n2)CCN1 (stereo not shown) [Example 402, 4-[(6-{[5-(trifluoromethyl)pyridin-2-yl]oxy}quinolin-2-yl)carbonyl]piperazine-2-carboxamide] | 9070 nM
16 | NC1CCN(C(=O)c2ccc3cc(Oc4ccc(C(F)(F)F)cn4)ccc3n2)CC1 [Example 403, (4-aminopiperidin-1-yl)(6-{[5-(trifluoromethyl)pyridin-2-yl]oxy}quinolin-2-yl)methanone] | 9670 nM
17 | O=C(c1ccc2cc(Oc3ccc(C(F)(F)F)cn3)ccc2n1)N1CCC(F)(F)C1 [Example 404, (3,3-difluoropyrrolidin-1-yl)(6-{[5-(trifluoromethyl)pyridin-2-yl]oxy}quinolin-2-yl)methanone] | 1950 nM
18 | CC1(C)CCN(C(=O)c2ccc3cc(Oc4ccc(C(F)(F)F)cn4)ccc3n2)C1 [Example 405, (3,3-dimethylpyrrolidin-1-yl)(6-{[5-(trifluoromethyl)pyridin-2-yl]oxy}quinolin-2-yl)methanone] | 1400 nM
19 | O=C(c1ccc2cc(Oc3ccc(C(F)(F)F)cn3)ccc2n1)N1CCNCC(F)C1 (stereo not shown) [Example 406, (6-fluoro-1,4-diazepan-1-yl)(6-{[5-(trifluoromethyl)pyridin-2-yl]oxy}quinolin-2-yl)methanone] | 1060 nM
20 | O=C(c1ccc2cc(Oc3ccc(C(F)(F)F)cn3)ccc2n1)N1CCNCC(O)C1 (stereo not shown) [Example 407, (6-hydroxy-1,4-diazepan-1-yl)(6-{[5-(trifluoromethyl)pyridin-2-yl]oxy}quinolin-2-yl)methanone] | 3810 nM
21 | CS(=O)(=O)NC1CCN(C(=O)c2ccc3cc(Oc4ccc(C(F)(F)F)cn4)ccc3n2)CC1 [Example 408, N-{1-[(6-{[5-(trifluoromethyl)pyridin-2-yl]oxy}quinolin-2-yl)carbonyl]piperidin-4-yl}methanesulfonamide] | > 20000 nM
22 | O=C(NC[C@H]1CCCO1)c1ccc2cc(Oc3ccc(C(F)(F)F)cn3)ccc2n1 [Example 409, N-[(2R)-tetrahydrofuran-2-ylmethyl]-6-{[5-(trifluoromethyl)pyridin-2-yl]oxy}quinoline-2-carboxamide] | 403 nM
23 | CN(C(=O)c1ccc2cc(Oc3ccc(C(F)(F)F)cn3)ccc2n1)C1CCOCC1 [Example 411, N-methyl-N-(tetrahydro-2H-pyran-4-yl)-6-{[5-(trifluoromethyl)pyridin-2-yl]oxy}quinoline-2-carboxamide] | 14100 nM
24 | CN(C)C(=O)CN(C)C(=O)c1ccc2cc(Oc3ccc(C(F)(F)F)cn3)ccc2n1 [Example 413, N-[2-(dimethylamino)-2-oxoethyl]-N-methyl-6-{[5-(trifluoromethyl)pyridin-2-yl]oxy}quinoline-2-carboxamide] | 12400 nM
25 | O=C(c1ccc2cc(Oc3ccc(C(F)(F)F)cn3)ccc2n1)N1CCC(C(F)(F)F)C1 (stereo not shown) [Example 414, (6-{[5-(trifluoromethyl)pyridin-2-yl]oxy}quinolin-2-yl)[3-(trifluoromethyl)pyrrolidin-1-yl]methanone] | 5020 nM
26 | O=C(c1ccc2cc(Oc3ccc(C(F)(F)F)cn3)ccc2n1)N1CC(F)C(F)C1 (stereo not shown) [Example 415, (3,4-difluoropyrrolidin-1-yl)(6-{[5-(trifluoromethyl)pyridin-2-yl]oxy}quinolin-2-yl)methanone] | 1610 nM
27 | O=C1CCC(NC(=O)c2ccc3cc(Oc4ccc(C(F)(F)F)cn4)ccc3n2)CN1 (stereo not shown) [Example 416, N-(6-oxopiperidin-3-yl)-6-{[5-(trifluoromethyl)pyridin-2-yl]oxy}quinoline-2-carboxamide] | 700 nM
28 | O=C(c1ccc2cc(Oc3ccc(C(F)(F)F)cn3)ccc2n1)N1CCNC2(CCC2)C1 [Example 418, 5,8-diazaspiro[3.5]non-8-yl(6-{[5-(trifluoromethyl)pyridin-2-yl]oxy}quinolin-2-yl)methanone] | 539 nM
29 | CN(C(=O)c1ccc2cc(Oc3ccc(C(F)(F)F)cn3)ccc2n1)C1CCS(=O)(=O)C1 (stereo not shown) [Example 419, N-(1,1-dioxidotetrahydrothiophen-3-yl)-N-methyl-6-{[5-(trifluoromethyl)pyridin-2-yl]oxy}quinoline-2-carboxamide] | 11900 nM
30 | O=C(NC1CCSC1)c1ccc2cc(Oc3ccc(C(F)(F)F)cn3)ccc2n1 (stereo not shown) [Example 420, N-(tetrahydrothiophen-3-yl)-6-{[5-(trifluoromethyl)pyridin-2-yl]oxy}quinoline-2-carboxamide] | 2430 nM

Same assay, conditions: read-out: FRET-Membrane Potential Nav1.7 IC50

Row | SMILES | IC50
31 | COCCN(C)C(=O)c1ccc2cc(Oc3ccc(C(F)(F)F)cn3)ccc2n1 [Example 392, N-(2-methoxyethyl)-N-methyl-6-{[5-(trifluoromethyl)pyridin-2-yl]oxy}quinoline-2-carboxamide] | 7960 nM
32 | O=C(c1ccc2cc(Oc3ccc(C(F)(F)F)cn3)ccc2n1)N1C[C@H](O)C[C@@H](O)C1 [Example 395, [(3R,5R)-3,5-dihydroxypiperidin-1-yl](6-{[5-(trifluoromethyl)pyridin-2-yl]oxy}quinolin-2-yl)methanone] | > 20000 nM
33 | C[C@H](O)CNC(=O)c1ccc2cc(Oc3ccc(C(F)(F)F)cn3)ccc2n1 [Example 410, N-[(2S)-2-hydroxypropyl]-6-{[5-(trifluoromethyl)pyridin-2-yl]oxy}quinoline-2-carboxamide] | 557 nM
34 | O=C(NCC1(O)COC1)c1ccc2cc(Oc3ccc(C(F)(F)F)cn3)ccc2n1 [Example 412, N-[(3-hydroxyoxetan-3-yl)methyl]-6-{[5-(trifluoromethyl)pyridin-2-yl]oxy}quinoline-2-carboxamide] | 513 nM
